Values of other authors as cited in patent publication US20230137840A1, “MINT MASK AND METHODS OF USE THEREOF” (Georgetown University, priority 2016, published 2023).

How the values were obtained:
cough reflex = details: menthol vapor; taste of sucrose
[1] = molecular target: transient receptor potential ankyrin 1 (TRPA1) (Homo sapiens, UniProt O75762); details: irritant-sensing channel
chemical irritants = details: menthol vapor; irritants including acrolein, acetic acid, cyclohexanone
cough = details: guinea pigs
[2] = molecular target: transient receptor potential melastatin 8 (TRPM8) (Homo sapiens, UniProt Q7Z2W7); details: present in cold-sensitive sensory neurons
Chain of transient receptor potential melastatin 8 (TRPM8) (Q7Z2W7 whole entry, species assumed): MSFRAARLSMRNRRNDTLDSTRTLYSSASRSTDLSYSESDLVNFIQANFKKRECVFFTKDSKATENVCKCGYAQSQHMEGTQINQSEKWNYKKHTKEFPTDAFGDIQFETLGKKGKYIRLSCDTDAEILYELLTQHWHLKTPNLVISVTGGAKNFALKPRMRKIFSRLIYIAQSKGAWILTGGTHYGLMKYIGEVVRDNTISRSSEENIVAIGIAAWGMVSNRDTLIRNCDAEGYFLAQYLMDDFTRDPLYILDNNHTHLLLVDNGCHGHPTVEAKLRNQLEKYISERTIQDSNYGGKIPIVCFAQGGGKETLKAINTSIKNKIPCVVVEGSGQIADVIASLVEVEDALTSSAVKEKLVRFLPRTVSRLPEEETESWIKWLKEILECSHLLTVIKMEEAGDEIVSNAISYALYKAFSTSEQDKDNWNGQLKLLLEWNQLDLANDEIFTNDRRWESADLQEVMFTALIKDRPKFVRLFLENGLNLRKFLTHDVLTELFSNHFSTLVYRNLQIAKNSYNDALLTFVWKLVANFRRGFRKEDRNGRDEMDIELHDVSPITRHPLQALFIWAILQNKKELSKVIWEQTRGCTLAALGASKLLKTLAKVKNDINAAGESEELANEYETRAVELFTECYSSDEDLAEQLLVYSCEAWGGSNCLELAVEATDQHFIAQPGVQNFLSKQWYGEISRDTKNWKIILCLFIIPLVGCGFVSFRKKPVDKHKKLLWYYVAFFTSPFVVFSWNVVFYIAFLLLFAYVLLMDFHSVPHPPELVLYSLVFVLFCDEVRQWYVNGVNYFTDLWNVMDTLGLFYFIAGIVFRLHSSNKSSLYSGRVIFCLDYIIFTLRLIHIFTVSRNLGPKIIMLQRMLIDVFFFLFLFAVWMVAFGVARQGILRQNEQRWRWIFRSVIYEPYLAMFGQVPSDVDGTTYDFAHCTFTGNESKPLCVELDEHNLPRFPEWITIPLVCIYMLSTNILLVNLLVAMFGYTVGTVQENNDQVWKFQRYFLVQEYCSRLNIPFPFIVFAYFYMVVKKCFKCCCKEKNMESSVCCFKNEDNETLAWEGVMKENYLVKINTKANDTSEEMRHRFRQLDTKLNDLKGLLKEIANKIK

[3] = test system: patients with chronic cough; details: menthol inhalation
nasal resistance = details: several studies
[4] = test system: upper airway resistance in normal subjects; details: inhaled; ten normal subjects
[5] = test system: cough after fiberoptic bronchoscopy; details: premedication with 1% menthol inhalation
bronchoconstriction = details: guinea pigs
asthmatics = details: nebulized, 10 mg twice daily for four weeks; 23 asthmatics

Chain of transient receptor potential ankyrin 1 (TRPA1) (O75762 whole entry, species assumed): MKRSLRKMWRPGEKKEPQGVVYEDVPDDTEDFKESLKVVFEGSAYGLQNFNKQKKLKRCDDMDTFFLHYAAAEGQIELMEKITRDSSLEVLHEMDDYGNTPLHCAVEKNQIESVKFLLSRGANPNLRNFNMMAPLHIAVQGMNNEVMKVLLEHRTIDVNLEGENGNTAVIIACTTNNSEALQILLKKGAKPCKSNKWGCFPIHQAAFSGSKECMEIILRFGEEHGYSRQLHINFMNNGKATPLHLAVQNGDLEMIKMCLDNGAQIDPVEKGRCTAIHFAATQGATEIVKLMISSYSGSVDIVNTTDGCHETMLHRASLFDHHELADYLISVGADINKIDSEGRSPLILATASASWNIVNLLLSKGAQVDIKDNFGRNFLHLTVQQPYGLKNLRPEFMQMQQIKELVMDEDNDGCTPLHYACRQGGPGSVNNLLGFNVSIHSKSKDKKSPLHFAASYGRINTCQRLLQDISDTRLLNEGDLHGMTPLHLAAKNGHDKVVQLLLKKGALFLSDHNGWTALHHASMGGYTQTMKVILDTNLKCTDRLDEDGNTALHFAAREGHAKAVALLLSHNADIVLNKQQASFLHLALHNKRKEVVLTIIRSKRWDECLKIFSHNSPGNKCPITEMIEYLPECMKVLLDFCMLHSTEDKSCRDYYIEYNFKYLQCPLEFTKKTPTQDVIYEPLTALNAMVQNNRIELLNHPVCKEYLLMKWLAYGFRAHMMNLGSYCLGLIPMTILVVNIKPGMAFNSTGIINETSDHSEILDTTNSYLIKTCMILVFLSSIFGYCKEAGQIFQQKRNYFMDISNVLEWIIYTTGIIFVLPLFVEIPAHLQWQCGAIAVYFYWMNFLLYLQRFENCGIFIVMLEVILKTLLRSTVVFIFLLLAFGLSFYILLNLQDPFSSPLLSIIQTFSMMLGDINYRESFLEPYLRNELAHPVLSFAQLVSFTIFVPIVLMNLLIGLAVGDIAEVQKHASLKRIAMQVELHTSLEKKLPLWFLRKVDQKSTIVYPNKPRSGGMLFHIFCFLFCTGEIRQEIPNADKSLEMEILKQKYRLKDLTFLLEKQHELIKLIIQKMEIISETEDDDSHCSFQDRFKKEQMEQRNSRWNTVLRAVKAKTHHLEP

Row | Structure (SMILES) | cough reflex to capsaicin challenge (cough reflex) | interaction with TRPA1 [1] | reactivity to chemical irritants (chemical irritants) | antitussive (cough suppressant) effect (cough) | bronchial contraction due to high extracellular potassium (bronchial smooth muscle) | bronchial contraction due to methacholine (bronchial smooth muscle) | interaction with TRPM8 [2] | cough sensitivity to inhaled capsaicin [3] | effect on inspiratory flows [3] | relaxation of bronchi preconstricted with acetylcholine or potassium chloride (bronchi) | effect on nasal resistance (nasal resistance) | effect on upper airway resistance [4] | effect on cough after fiberoptic bronchoscopy [5] | capsaicin-induced bronchoconstriction (bronchoconstriction) | neurokinin A-induced bronchoconstriction (bronchoconstriction) | diurnal variation in peak expiratory flow rate (PEER) (asthmatics) | effect on FEV1 (forced expiratory volume at 1 second) (asthmatics) | effect on VC (vital capacity) (asthmatics) | use of metered dose inhalers (asthmatics) | wheezing episodes (asthmatics)
1 | OC[C@H]1O[C@@](CO)(O[C@H]2O[C@H](CO)[C@@H](O)[C@H](O)[C@H]2O)[C@@H](O)[C@@H]1O [sucrose] | reduced cough reflex |  |  |  |  |  |  |  |  |  |  |  |  |  |  |  |  |  |  | 
2 | CC(C)[C@@H]1CC[C@@H](C)C[C@H]1O [menthol, (1R,2S,5R)-2-Isopropyl-5-methylcyclohexanol] | reduced cough reflex | interacts | reduces reactivity | antitussive (cough suppressant) effects | inhibits | inhibits | interacts | reduced cough sensitivity | had an effect | relaxes | no effect | no effect | no effect | attenuates | attenuates | decreased | no effect | no effect | reduced use | reduced wheezing episodes
